The text below walks through data of US20090131406A1 (BAYER CROPSCIENCE AG, priority 2005, published 2009).

Each structure is given as a SMILES string.

Common to all, as to assay: LIVE/DEAD cytotoxicity assay, inhibition of cell proliferation
Common to all, as to format: cell-based, human

One experiment concerns SW620 cells. As to the method:
(§1) The compounds of the general formula (I) according to the invention were tested for a possible cytotoxic or proliferation-inhibiting activity on the human tumour cell lines HeLa, SW620 and A375 (all from ATTC, American Type Culture Collection). To this end, the cells were plated in microtitre plates from Greiner (Manufacturer No. 781092) at a cell density of 1000 cells/microtitre plate well and cultivated in cell culture medium at 37° C. under a 5% carbon dioxide atmosphere. Cell culture media and additives were purchased from Invitrogen and the foetal calf serum from Biochrom. The cell culture media for Hela and A375 cells were used as stated by ATCC (HeLa: MEM, Order No. 10370-047, with 1% sodium bicarbonate, 1% non-essential amino acids, 1% sodium pyruvate, 10% foetal calf serum, 0.1% gentamycin; A375: DMEM, Order No. 41965-039, 2% sodium bicarbonate, 1% L-Glutamax, 10% foetal calf serum, 0.1% gentamycin). The culture medium for the SW620 cells consisted of DMEM, Order No. 41965-039, 1% non-essential amino acids, 10% foetal calf serum, 0.1% gentamycin.
(§2) 24 hours after the cells had been plated in the microtitre plates, various concentrations of at most 100 μM down to a minimum concentration of 5 nM of the test compounds were added to the cells. Stock solutions of the test compounds (10 mM) were prepared in DMSO and stored at −20° C.; for the cytotoxicity tests, the test compounds were diluted in the appropriate cell culture medium.
(§3) After a further 48 hours of incubation, the cells were washed with medium and analysed with the aid of a two-colour fluorescence cytotoxicity/viability test (LIVE/DEAD viability/cytotoxicity ASSAY kit from Molecular Probes, Order No. L-3224), according to the instructions of the manufacturer. To this end, the medium was aspirated and in each case 30 μl of LIVE/DEAD reagent per microtitre plate well were added to the cells, which were then incubated for 30 minutes. The cells were then washed with PBS (phosphate-buffered saline). The number of live cells was analysed by measuring the green fluorescence of the live dye calcein-AM as a component of the LIVE/DEAD reagent using a fluorescence plate reader (Flexstation, from Molecular Devices) at an excitation wavelength of 485 nm and an emission wavelength of 525 nm (cf. Oral, H. B. Endothelium 6, (1998), 143-151).
(§4) Cells only with cell culture medium, without added test compounds, were treated in parallel and analysed as growth controls. The reference compounds used for anti-tumour agents having a cytotoxic or proliferation-inhibiting action were colchicine (from Merck/Calbiochem, Order No. 234115) and Taxol (baccatin III N-benzyl-b-phenylisoserine ester, from Merck/Calbiochem, Order No. 580555) (cf. Schiff, P. B. and Horwitz, S. B., Proceedings of the National Academy of Sciences of the U.S.A. 77, 1561-1565, 1980; Holmes, F. A. et al., Journal of the National Cancer Institute 83, 1797-1805, 1991).
(§5) The cytotoxic effects of the test compounds were expressed as logarithmic GI50 values (growth-inhibiting logarithmic concentration value at which a cell growth reduced by 50% compared to the control without test compounds was measured (cf. Xia et al., Journal of Medicinal Chemistry 44, 3932-3936, 2001; Smith, J. A. et al., Gynecologic Oncology 98, 141-145, 2005)).

For a further experiment, the system named is A375 cells. As to the method:
as §1, §2, §3, §4, §5

Another experiment relates to HeLa cells. Details: log GI50 values (M), HeLa cells: unit not given here. As to the method:
as §1
24 hours after the cells had been plated in the microtitre plates, various concentrations of at most 100 μM down to a minimum concentration of 5 nM of the test compounds were added to the cells. […]
as §3, with “To this end, the medium was aspirated and in each case 30 μl of LIVE/DEAD reagent per microtitre plate well were added to the cells, which were then incubated for 30 minutes. The cells were then washed with PBS (phosphate-buffered saline).” left out
Cells only with cell culture medium, without added test compounds, were treated in parallel and analysed as growth controls. […]

Setting [1] is: 48 hours of incubation, calcein-AM fluorescence, cell growth reduced by 50% compared to control.

A word on the GI50: it is the concentration at which growth is held to half of that of the control. Turning to `COc1cc2c(c(OC)c1OC)-c1ccc(OC)c(=O)cc1[C@@H](NC(C)=O)CC2` [Colchicine, colchicine], the GI50 in the experiment with SW620 cells (Homo sapiens, SW-620, 48 h, read-out: log GI50 values (M), SW620 cells (converted)) is 1.26e-08 M; with A375 cells (Homo sapiens, A-375, 48 h, read-out: log GI50 values (M), A375 cells (converted)) it was 2e-08 M; in the experiment with HeLa cells (Homo sapiens, 48 h, read-out: log GI50 values (M), HeLa cells (converted)) it was 1.58e-08 M.

In the case of `CO[C@@H]1[C@@H](OC)[C@H](O[C@@H]2CC(=O)[C@@H]3CCN(Cc4cc5c(cc43)OCO5)C(=O)[C@H]2O)O[C@H](CO)[C@H]1OC` [Cripowellin II, cripowellin II], the “log GI50 values (M), SW620 cells” value in the experiment on SW620 cells (setting [1]) is recorded as 6.9 -log M. In addition, the “log GI50 values (M), A375 cells” value in the experiment on A375 cells (setting [1]) is 8.0 M. In addition, in the experiment with HeLa cells (setting [1]), the “log GI50 values (M), HeLa cells” value is reported as 8.7.
